Results as given in ChEMBL document CHEMBL1141868, “Synthesis, biological activity, and X-ray crystal structural analysis of diaryl ether inhibitors of malarial enoyl acyl carrier protein reductase. Part 1: 4'-substituted triclosan derivatives” (Bioorg Med Chem Lett, 2005).

Experiments:
Plasmodium falciparum [1] = experiment: Inhibition of drug-sensitive Plasmodium falciparum 3D7 after 72 hrs; type: functional, organism-based; conditions: 3D7, 72 h
Plasmodium falciparum [2] = experiment: Inhibition of drug-resistant Plasmodium falciparum Dd2 after 72 hrs; type: functional, organism-based; conditions: Dd2, 72 h
[3] = biological target: T1, Enoyl-acyl-carrier protein reductase (Plasmodium falciparum, UniProt Q965D5); experiment: Inhibition of PfENR enzymatic activity
T1 sequence (Q965D5 whole entry): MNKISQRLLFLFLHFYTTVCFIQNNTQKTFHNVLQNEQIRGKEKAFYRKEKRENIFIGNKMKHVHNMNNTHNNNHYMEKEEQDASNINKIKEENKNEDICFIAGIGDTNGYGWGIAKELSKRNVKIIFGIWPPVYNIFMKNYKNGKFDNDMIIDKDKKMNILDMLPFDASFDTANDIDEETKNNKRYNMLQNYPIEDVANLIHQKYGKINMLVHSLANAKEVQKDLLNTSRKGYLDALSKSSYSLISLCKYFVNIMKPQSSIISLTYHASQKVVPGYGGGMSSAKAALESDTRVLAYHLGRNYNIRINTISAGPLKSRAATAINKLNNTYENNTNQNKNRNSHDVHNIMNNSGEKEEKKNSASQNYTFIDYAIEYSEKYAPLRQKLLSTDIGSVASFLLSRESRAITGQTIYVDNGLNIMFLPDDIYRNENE

| Compound | EC50 (Plasmodium falciparum [1]) [µM] | EC50 (Plasmodium falciparum [2]) [µM] | IC50 [3] [µM] |
| --- | --- | --- | --- |
| O=C(O)c1ccc(Oc2ccc(Cl)cc2O)c(Cl)c1 | 110 | 130 | 0.55 |
| O=C(c1ccc(Oc2ccc(Cl)cc2O)c(Cl)c1)N1CCOCC1 | 63.5 | 94.5 | 0.2 |
| Oc1ccccc1CNc1ccc(Oc2ccc(Cl)cc2O)c(Cl)c1 | 4.5 | 5.6 | 0.32 |
| O=S(=O)(Nc1ccc(Oc2ccc(Cl)cc2O)c(Cl)c1)c1ccccc1 | 55.1 | 77.5 | 0.37 |
| CNC(=O)c1ccc(Oc2ccc(Cl)cc2O)c(Cl)c1 | 77.8 | 100 | 0.31 |
| O=S(=O)(Nc1ccc(Oc2ccc(Cl)cc2O)c(Cl)c1)C(F)(F)F | > 120 | > 120 | 0.14 |
| NC(=O)Nc1ccc(Oc2ccc(Cl)cc2O)c(Cl)c1 | 110 | 120 | 0.16 |
| O=C(Nc1ccc(Oc2ccc(Cl)cc2O)c(Cl)c1)N1CCOCC1 | 66.8 | 86.4 | 0.25 |
| Oc1cc(Cl)ccc1Oc1ccc(-c2nn[nH]n2)cc1Cl | 120 | > 150 | 0.413 |
| NC(=O)c1ccc(Oc2ccc(Cl)cc2O)c(Cl)c1 | 96.3 | 100 | 0.12 |
| O=S(=O)(Nc1ccc(Oc2ccc(Cl)cc2O)c(Cl)c1)c1cccc2ccccc12 | 34.3 | 43.7 | 0.59 |
| CN(C)C(=O)c1ccc(Oc2ccc(Cl)cc2O)c(Cl)c1 | 68.4 | 95.7 | 0.46 |
| O=S(=O)(Nc1ccc(Oc2ccc(Cl)cc2O)c(Cl)c1)c1ccc2ccccc2c1 | 23.5 | 33.9 | 2.5 |
| Oc1ccc(Oc2ccc(Cl)cc2O)c(Cl)c1 | 65.3 | 87.8 | 0.22 |
| N#Cc1ccc(Oc2ccc(Cl)cc2O)c(Cl)c1 | 3.9 | 5.4 | 0.12 |
| N#Cc1ccccc1CNc1ccc(Oc2ccc(Cl)cc2O)c(Cl)c1 | 26.7 | 45.4 | 0.56 |
| O=C(NO)c1ccc(Oc2ccc(Cl)cc2O)c(Cl)c1 | 31.2 | 30.6 | 1.2 |
| N#CCc1ccc(Oc2ccc(Cl)cc2O)c(Cl)c1 | 23.1 | 36.4 | 0.19 |
| Oc1cc(Cl)ccc1Oc1ccc(NCc2ccccc2)cc1Cl | 35.8 | 47.5 | 0.14 |
| O=C(c1ccc(Oc2ccc(Cl)cc2O)c(Cl)c1)N1CCCCC1 | 11.7 | 18 | 0.68 |
| CC(=O)Nc1ccc(Oc2ccc(Cl)cc2O)c(Cl)c1 | 52.2 | 50.9 | 0.057 |
| O=C(Nc1ccc(Oc2ccc(Cl)cc2O)c(Cl)c1)c1ccccc1 | 57.2 | 83.9 | 0.17 |
| O=C(c1ccc(Oc2ccc(Cl)cc2O)c(Cl)c1)N1CCCC1 | 20.7 | 42.6 | 0.81 |
| O=[N+]([O-])c1ccc(Oc2ccc(Cl)cc2O)c(Cl)c1 | 2.1 | 3.2 | 0.18 |
| O=C(NCc1ccccc1)c1ccc(Oc2ccc(Cl)cc2O)c(Cl)c1 | 7.5 | 20.6 | 3 |
| Nc1ccc(Oc2ccc(Cl)cc2O)c(Cl)c1 | 120 | 140 | 0.36 |
| Oc1cc(Cl)ccc1Oc1ccc(Cl)cc1Cl [TRICLOSAN] | 2.9 | 3.9 | 0.073 |
